Laboratory results taken from patent US10093716B2, “Methods for treating cancer” (UCL BUSINESS PLC, priority 2013, dated 2018).

What was measured:
A549-luc cells = assay: Experimental lung metastasis model, A549-luc cells injected into tail vein; format: in vivo, SCID beige mice; conditions: 0.5 mg/mouse i.p., 3× per week starting 1 day after cell injection; bioluminescence after 2 weeks; FIG. 3D
Method: FIGS. 3A-3D| KRAS-mutated cells require autocrine TRAIL-R2-mediated migration for metastasis formation. FIG. 3A, 2×10^6 A549-luc cells infected with shTRAIL-R2 or control vector were injected into the tail vein of SCID beige mice. Metastatic burden in the lungs was detected after three weeks by quantification of bioluminescence (Photons/second). Three representative mice from each group are shown (n=9/group). FIG. 3B, FIG. 3C Five lungs from each group that were closest to the average value of the respective group in the H&E quantification were subjected to further Ki67 and TUNEL stainings and quantified as Ki67 and TUNEL positive area within tumor nodules, respectively. Representative images are shown. FIG. 3D, A549-luc parental cells were injected as in FIG. 3A, mice were treated with Vehicle (PBS) or 0.5 mg TRAIL-R2-Fc/mouse starting the next day, 3× per week.
Bioluminescence was determined after 2 weeks, representative mice are shown (n=8/group). Arrows indicate Ki67/TUNEL-positive cells. Dots represent individual lungs. Values are means+/−SEM; ns, not significant; * P<0.05 Student's t-test.
Animal Models. […] Photons per second (Photon Flux) were quantified using the Ivis Spectrum software. […] After one week, tumours were palpable and their size was measured by caliper. […]

A549 cells = assay: xCELLigence migration assay, A549; format: cell-based, human; conditions: 100 μg/ml recombinant receptor-Fc protein during migration, FIG. 1F
Method: siRNA-mediated knockdown. Knockdown experiments were performed by transient transfection of RISC-free control siRNA, siRNA pools or single sequences (Dharmacon) to silence the indicated proteins using Dharmafect I (Dharmacon) following the instruction manual. All cell lines were incubated for 48 h to achieve sufficient knockdown.
Migration assays. Migration assays were performed using the xCELLigence System (Roche) according to manufacturer's instructions. See Supplementary Methods for detailed description.
Migration assays were performed using the xCELLigence System (Roche) that uses specially designed microtiter plates containing gold microelectrodes to measure electrical impedance of cells adhering to electrodes in real time. Increased impedance of background control wells was subtracted from all other values, the increase in electrical impedance/migration of control siRNA-transfected/control vector-infected cells was then defined as 100% migration and relative migration of all other transfected samples was calculated as compared to control-transfected cells, accordingly. Migration plates (CIM 16) are based on the Boyden chamber principle, the lower surface of the filter is covered with microelectrodes measuring cells that have migrated through the pores and adhere to the lower surface of the filter in real time. […]

Rac1 [1] = assay: Rac1 pulldown assay (GTP-bound Rac1, PAK1-beads), A549; format: cell-based, human; conditions: A549 cells, iz-TRAIL 100 ng/ml; FIG. 8E
Method: FIGS. 8A-8J| Autocrine TRAIL is required for caspase-independent migration and Rac1 activation. FIG. 8A, DLD-1 cells were transfected with the indicated siRNAs and subjected to migration assays. FIG. 8B, A549 cells were treated with DMSO or 10 μM zVAD-fmk and were subsequently subjected to migration assays. FIG. 8C, Dominant negative FADD (dnFADD)-overexpressing DLD-1 cells were transfected with the indicated siRNAs and subjected to migration assays. FIG. 8D, Parental and DLD-1 cells overexpressing dnFADD were treated with 1 μg/ml iz-TRAIL for the indicated times, subsequently lysed and subjected to Western blot analysis. FIG. 8E, A549 cells were treated with iz-TRAIL (100 ng/ml) for the indicated times and subjected to pulldown of GTP-bound Rac1 using PAK1-beads (Millipore-Rac1 activation kit). Cell lysates were subsequently analyzed by Western blotting. FIG. 8F, Control or shTRAIL-R2-infected A549 cells were subjected to pulldown of GTP-bound Rac1 as in FIG. 8E. FIG. 8G, A549 cells were transfected with the indicated siRNAs and subjected to migration assays. FIG. 8H, KRAS-mutated (DLD-1, HCT116) and isogenic KRAS-WT (DKO4, Hkh-2) cell lines were lysed and subjected to Western blotting. FIG. 8I, KRAS-mutated H460 cells were transfected with the indicated siRNAs. […]
2.5×10^6 cells were seeded into 10 cm dishes. […] Proteins were separated by SDS-PAGE (NuPAGE) and analyzed by Western blotting.

Rac1 [2] = assay: Rac1 pulldown assay (GTP-bound Rac1, PAK1-beads), isogenic DLD-1 and DKO4; format: cell-based, human; conditions: isogenic KRAS-mutated DLD-1 versus KRAS-WT DKO4, iz-TRAIL 100 ng/ml; FIG. 7E
Method: FIGS. 7A-7F| Autocrine migration is independent of the DISC but requires Rac1. FIG. 7A, FADD-deficient clones 10, 41 and 50 were transfected with the indicated siRNAs and subjected to migration assays. FIG. 7B, Control vector-infected or shTRAIL-R2-infected A549 cells were fixed and stained using Texas red-coupled phalloidin and DAPI. Representative confocal images are shown (×400).c, A549 cells were treated with DMSO, PD98059 (10 μM), PIK75 (100 nM) or NSC23766 (100 μM) and subjected to migration assays. FIG. 7D, A549 cells were transfected with the indicated siRNAs and subjected to migration assays. FIG. 7E, Isogenic DLD-1 and DKO4 cells were treated with iz-TRAIL (100 ng/ml) for the indicated times and then subjected to pulldown of GTP-bound Rac1 using PAK1-beads (Millipore-Rac1 activation kit). FIG. 7F, KRAS-WT DKO4 cells were transfected with the indicated siRNAs and prior to migration treated with vehicle (H2O) or 10 μM Y27632. Representative Western blots are shown.
2.5×10^6 cells were seeded into 10 cm dishes. The next day, cells were incubated with and without 100 ng/ml iz-TRAIL. Cell lysis and Rac1 pulldown was performed using a Rac1-pulldown kit (Millipore) according to the manufacturer's instructions. Proteins were separated by SDS-PAGE (NuPAGE) and analyzed by Western blotting.

## TRAIL-R2-Fc fusion protein: majority of the extracellular domain of human TRAIL-R2 fused to the Fc portion of human IgG1 (SEQ ID NO: 15); TRAIL-inhibiting
A549-luc cells
  metastasis (metastatic burden in lungs, bioluminescence): significantly reduced metastasis
A549 cells
  migration (normalized to PBS-treated cells): suppressed migration to a similar extent

B1: TRAIL: recombinant iz-TRAIL produced in E. coli, LPS-free after purification (protein)
chain: MAMMEVQGGPSLGQTCVLIVIFTVLLQSLCVAVTYVYFTNELKQMQDKYSKSGIACFLKEDDSYWDPNDEESMNSPCWQVKWQLRQLVRKMILRTSEETISTVQEKQQNISPLVRERGPQRVAAHITGTRGRSNTLSSPNSKNEKALGRKINSWESSRSGHSFLSNLHLRNGELVIHEKGFYYIYSQTYFRFQEEIKENTKNDKQMVQYIYKYTSYPDPILLMKSARNSCWSKDAEYGLYSIYQGGIFELKENDRIFVSVTNEHLIDMDHEASFFGAFLVG
Rac1 [1]
  Rac1 activation (GTP-bound Rac1 pulldown): able to activate Rac1
Rac1 [2]
  Rac1 activation (GTP-bound Rac1 pulldown): only capable of doing so in KRAS-mutated cells
